In US12390437B2, “Itaconic acid derivatives and uses thereof intreating an inflammatory disease or a disease associated with an undesirable immune response” (Sitryx Therapeutics Limited, priority 2019, dated 2025):
Where two headings read alike, the source gives them in different places.

Assays:
[1] = system: IL-6 cytokine output from THP-1s; experiment: THP-1 AlphaLISA IL-6 cytokine assay; type: cell-based, human; details: Homo sapiens; PMA-differentiated THP-1 cells, LPS 24 hr then Nigericin 1 hour
Description: Measuring Inhibitory Effects on IL-1β and IL-6 Cytokine Output from THP-1s
The cytokine inhibition profiles of compounds of formula (IW-1) were determined in a differentiated THP-1 cell assay. All assays were performed in RPMI-1640 growth medium (Gibco), supplemented with 10% fetal bovine serum (FBS; Gibco), 1% penicillin-streptomycin and 1% sodium pyruvate unless specified otherwise. The IL-1β and IL-6 cytokine inhibition assays were each run in a background of differentiated THP-1 cells as described below. All reagents described were from Sigma-Aldrich unless specified otherwise. Compounds were prepared as 10 mM DMSO stocks.
THP-1 cells were expanded as a suspension up to 80% confluence in appropriate growth medium. Cells were harvested, suspended, and treated with an appropriate concentration of phorbol 12-myristate 13-acetate (PMA) over a 72 hr period (37° C./5% CO2).
Following 72 hrs of THP-1 cell incubation, cellular medium was removed and replaced with fresh growth media containing 1% of FBS. Working concentrations of compounds were prepared separately in 10% FBS treated growth medium and pre-incubated with the cells for 30 minutes (37° C./5% CO2). Following the 30 minute compound pre-incubation, THP-1s were treated with an appropriate concentration of LPS and the THP-1s were subsequently incubated for a 24 hr period (37° C./5% CO2). An appropriate final concentration of Nigericin was then dispensed into the THP-1 plates and incubated for 1 hour (37° C./5% CO2) before THP-1 supernatants were harvested and collected in separate polypropylene 96-well holding plates.
Reagents from each of the IL-1β and IL-6 commercial kits (Perkin Elmer) were prepared and run according to the manufacturer's instructions. Subsequently, fluorescence signal detection in a microplate reader was measured (EnVision® Multilabel Reader, Perkin Elmer).
Percentage inhibition was calculated per cytokine by normalising the sample data to the high and low controls used within each plate (+/−LPS respectively). Percentage inhibition was then plotted against compound concentration and the 50% inhibitory concentration (IC50) was determined from the resultant concentration-response curve.

[2] = system: IL-1β cytokine output from THP-1s; experiment: THP-1 AlphaLISA IL-1β cytokine assay; type: cell-based, human; details: Homo sapiens, LPS 24 hr then Nigericin 1 hour, read-out: IL-1β (IC50)
Summary of the method: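 AlphaLISA read-out of cytokine released into supernatants of differentiated THP-1 cells. Cells were PMA-treated for 72 h, exposed to compound for 30 min, stimulated with LPS for 24 h, then given nigericin for 1 h before harvest. IC50 values come from normalised concentration-response curves.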

NRF2 = NRF2 +/-GSH activation assay (DiscoverX PathHunter NRF2 translocation kit, U2OS cells); type: cell-based; details: Homo sapiens; for Emax: read-out: NRF2 activation Emax; for EC50: read-out: NRF2 activation EC50
Description: Measuring Compound Activation Effects on the Anti-Inflammatory Transcription Factor NRF2 in DiscoverX PathHunter NRF2 Translocation Kit
Potency and efficacy of compounds of formula (IW-1) against the target of interest to activate NRF2 (nuclear factor erythroid 2-related factor 2) were determined using the PathHunter NRF2 translocation kit (DiscoverX). The NRF2 translocation assay was run using an engineered recombinant cell line, utilising enzyme fragment complementation to determine activation of the Keap1-NRF2 protein complex and subsequent translocation of NRF2 into the nucleus. Enzyme activity was quantified using a chemiluminescent substrate consumed following the formation of a functional enzyme upon PK-tagged NRF2 translocation into the nucleus.
The assay was run under either +/−GSH (glutathione) conditions to determine the attenuating activities of GSH against target compounds.
Additionally, a defined concentration of dimethyl fumarate was used as the ‘High’ control to normalise test compound activation responses to.
U2OS PathHunter eXpress cells were thawed from frozen prior to plating. Following plating, U2OS cells were incubated for 24 hrs (37° C./5% CO2) in commercial kit provided cell medium.
Following 24 hrs of U2OS incubation, cells were directly treated with an appropriate final concentration of compound, for −GSH conditions, or for +GSH conditions, an intermediate plate containing 6× working concentrations of compound stocks was prepared in a 6 mM working concentration of GSH solution (solubilised in sterile PBS). Following a 30 minute compound-GSH pre-incubation (37° C./5% CO2) for +GSH treatment, plated U2OS cells were incubated with an appropriate final concentration of compound and GSH.
Following compound (+/−GSH) treatment, the U2OS plates were incubated for a further 6 hours (37° C./5% CO2) before detection reagent from the PathHunter NRF2 commercial kit was prepared and added to test plates according to the manufacturer's instructions. Subsequently, the luminescence signal detection in a microplate reader was measured (PHERAstar®, BMG Labtech).
Percentage activation was calculated by normalising the sample data to the high and low controls used within each plate (+/−DMF). Percentage activation/response was then plotted against compound concentration and the 50% activation concentration (EC50) was determined from the plotted concentration-response curve.

[3] = THP-1, PMA-differentiated THP-1 cells
[4] = U2OS, normalised to dimethyl fumarate 'High' control, GSH condition not stated in Table 5
[5] = U2OS PathHunter cells, 6 hours, GSH condition not stated in Table 5

Compound | IC50 [1] [µM] | IC50 [2, 3] [µM] | further results
C=C(CC(=O)OCCCCCCCC)C(=O)OCC(C)OC (stereo not shown) [Example 33, 1-(2-methoxypropyl) 4-octyl 2-methylenesuccinate] | 11.7 | 14.1 | 
C=C(CC(=O)O[C@H](C)CCCCCC)C(=O)OC1CS(=O)(=O)C1 [Example 57, (R)-1-(1,1-dioxidothietan-3-yl) 4-(octan-2-yl) 2-methylenesuccinate] | 2.6 | 4.4 | 
C=C(CC(=O)OCCCCCCCC)C(=O)OC(C)CC#N (stereo not shown) [Example 27, 1-(1-cyanopropan-2-yl) 4-octyl 2-methylenesuccinate] | 6.4 | 12.2 | 
C=C(CC(=O)OCCCOCC)C(=O)OCC(=O)O [Example 114, 2-((4-(3-ethoxypropoxy)-2-methylene-4-oxobutanoyl)oxy)acetic acid] | 56.2 | 100 | 
C=C(CC(=O)OCCCCCCCC)C(=O)OCCC(=O)NC [Example 110, 1-(3-(methylamino)-3-oxopropyl) 4-octyl 2-methylenesuccinate] | 4.4 | 8.5 | 
C=C(CC(=O)OCCCCCCCC)C(=O)OCCOC [Example 29, 1-(2-methoxyethyl) 4-octyl 2-methylenesuccinate] | 7.9 | 18.4 | 
C=C(CC(=O)OCCCCCCCC)C(=O)OCC1(C#N)CC1 [Example 32, 1-((1-cyanocyclopropyl)methyl) 4-octyl 2-methylenesuccinate] | 9.5 | 18.9 | 
C=C(CC(=O)O[C@H](C)CCCCCC)C(=O)OC(C)CS(C)(=O)=O (stereo partly drawn) [Example 56, 1-(1-(methylsulfonyl)propan-2-yl) 4-((R)-octan-2-yl) 2-methylenesuccinate] | 3.5 | 7.9 | 
C=C(CC(=O)O[C@@H](C)CCCCCC)C(=O)OC1CN(C(C)=O)C1 [Example 66, (S)-1-(1-acetylazetidin-3-yl) 4-(octan-2-yl) 2-methylenesuccinate] | 2.5 | 2.3 | 
C=C(CC(=O)OCCCCCCCC)C(=O)O[C@H]1CCOC1 [Example 23, (S)-4-octyl 1-(tetrahydrofuran-3-yl) 2-methylenesuccinate] | 4.5 | 8.2 | 
C=C(CC(=O)OCCCCCC)C(=O)OCCc1nnn[nH]1 [Example 78, 1-(2-(1H-tetrazol-5-yl)ethyl) 4-hexyl 2-methylenesuccinate] |  | 4.2 | Emax (NRF2; [4]): 177%; EC50 (NRF2; [5]): 17.7 µM
C=C(CC(=O)OC1CCCCCC1)C(=O)OCC(=O)O [Example 145, 2-(4-(cycloheptyloxy)-2-methylene-4-oxobutanoyloxy)acetic acid] |  |  | IC50 ([2]; PMA-differentiated THP-1 cells): 19.3 µM; EC50 (NRF2; U2OS, 6 h): > 100 µM; Emax (NRF2; U2OS): 7%

The next lines start with results.

IC50 [1] [µM] | IC50 [2, 3] [µM] | Compound | further results
12.6 | 10.2 | C=C(CC(=O)OC1CCCCC1)C(=O)OC1CCOCC1 [Example 64, 4-cyclohexyl 1-(tetrahydro-2H-pyran-4-yl) 2-methylenesuccinate] | 
8.9 | 20.5 | C=C(CC(=O)OCCOCCOCC)C(=O)OCCS(C)(=O)=O [Example 36, 4-(2-(2-ethoxyethoxy)ethyl) 1-(2-(methylsulfonyl)ethyl) 2-methylenesuccinate] | 
36.3 | 59.5 | C=C(CC(=O)OC1CC2CCC1C2)C(=O)OCC(=O)O (stereo not shown) [Example 115, 2-((4-(bicyclo[2.2.1]heptan-2-yloxy)-2-methylene-4-oxobutanoyl)oxy)acetic acid] | 
23.5 | 24.1 | C=C(CC(=O)O[C@H](C)CCCCCC)C(=O)OC1CCOCC1 [Example 73, (R)-4-(octan-2-yl) 1-(tetrahydro-2H-pyran-4-yl) 2-methylenesuccinate] | 
70.9 | 100 | C=C(CC(=O)OC1CCCCC1)C(=O)OC(C)C(=O)O (stereo not shown) [Example 111, 2-((4-(cyclohexyloxy)-2-methylene-4-oxobutanoyl)oxy)propanoic acid] | 
1.9 | 1.9 | C=C(CC(=O)OC1CCCCCCC1)C(=O)OCCS(C)(=O)=O [Example 25, 4-cyclooctyl 1-(2-(methylsulfonyl)ethyl) 2-methylenesuccinate] | 
3.8 | 5.1 | C=C(CC(=O)O[C@H](C)CCCCCC)C(=O)OCCS(C)(=O)=O [Example 55, (R)-1-(2-(methylsulfonyl)ethyl) 4-(octan-2-yl) 2-methylenesuccinate] | 
22.4 | 22.6 | C=C(CC(=O)OC1CCCCC1)C(=O)OCCN1CCCC1=O [Example 65, 4-cyclohexyl 1-(2-(2-oxopyrrolidin-1-yl)ethyl) 2-methylenesuccinate] | 
7 | 15.4 | C=C(CC(=O)OC(C)C)C(=O)OCCS(C)(=O)=O [Example 22, 4-isopropyl 1-(2-(methylsulfonyl)ethyl) 2-methylenesuccinate] | 
9.4 | 6.1 | C=C(CC(=O)OC1CCCCCCC1)C(=O)OC1CCOCC1 [Example 70, 4-cyclooctyl 1-(tetrahydro-2H-pyran-4-yl) 2-methylenesuccinate] | 
 | 11.2 | C=C(CC(=O)OC1CCCCC1)C(=O)OC1CCN(S(C)(=O)=O)CC1 [Example 75, 4-cyclohexyl 1-(1-(methylsulfonyl)piperidin-4-yl) 2-methylenesuccinate] | Emax (NRF2; [4]): 143%; EC50 (NRF2; [5]): 17.5 µM
 | 5.7 | C=C(CC(=O)OC1CCCCCCC1)C(=O)OC1(CC(=O)OCC)COC1 [Example 137, 4-cyclooctyl 1-(3-(2-ethoxy-2-oxoethyl)oxetan-3-yl) 2-methylenesuccinate] | Emax (NRF2; [4]): 96%; EC50 (NRF2; [5]): 4.2 µM
 | 41.6 | C=C(CC(=O)OC1CC2(COC2)C1)C(=O)O[C@H]1[C@@H]2CC[C@H]1CN(S(C)(=O)=O)C2 [Example 157, 1-((endo)-3-(methylsulfonyl)-3-azabicyclo[3.2.1]octan-8-yl) 4-(2-oxaspiro[3.3]heptan-6-yl) 2-methylenesuccinate] | Emax (NRF2; [4]): 29%; EC50 (NRF2; [5]): > 100 µM
 | 1.7 | C=C(CC(=O)OC1CCCCCCC1)C(=O)OC(CC(=O)O)C(F)(F)F (stereo not shown) [Example 144, 3-((4-(cyclooctyloxy)-2-methylene-4-oxobutanoyl)oxy)-4,4,4-trifluorobutanoic acid] | Emax (NRF2; [4]): 176%; EC50 (NRF2; [5]): 2.1 µM
 | 23.9 | C=C(CC(=O)OC1CC2(CCC2)C1)C(=O)OCc1nn[nH]n1 [Example 163, 1-(2H-tetrazol-5-yl)methyl 4-spiro[3.3]heptan-2-yl 2-methylenesuccinate] | Emax (NRF2; [4]): 0%; EC50 (NRF2; [5]): > 100 µM
 | 13 | C=C(CC(=O)OC1CCCCCCC1)C(=O)OC(C(=O)O)C(F)(F)F (stereo not shown) [Example 122, 2-((4-(cyclooctyloxy)-2-methylene-4-oxobutanoyl)oxy)-3,3,3-trifluoropropanoic acid] | Emax (NRF2; [4]): 178%; EC50 (NRF2; [5]): 17.5 µM
